Results published in patent US20250346943A1, “DEGRADER COMPOUNDS OF QSOX1 mRNA” (UNIVERSITY OF FLORIDA RESEARCH FOUNDATION, INCORPORATED, priority 2022, published 2025).

Experiments:
[1] = molecular target: QSOX1 5′UTR hairpin (model of the QSOX1-a binding site); assay: In vitro binding by fluorescence polarization, Cy5-labeled WT RNA; parameters: species or system human
Experimental: In Vitro Binding by Measuring Changes in Fluorescence Polarization. Cy5-labeled RNA was folded by heating at 95° C. for 2 min in 1× Folding Buffer and cooled on ice. Serial dilutions of F1 (200 to 0.4 μM, 1:1 dilutions) were prepared in 1× Folding Buffer with 4% (w/v) bovine serum albumin (BSA) with constant DMSO concentration (2% v/v). The compound solutions (10 μL) were added to a well of non-binding 384-well plate (Corning). An equal volume of folded RNA was adding to each well with a final concentration of 50 nM. The samples were incubated at room temperature for 30 min, and then fluorescence polarization was measured with a Molecular Devices SpectraMax M5 plate reader with an excitation wavelength of 640 nm and an emission wavelength of 680 nm.

QSOX1-a protein = QSOX1-a protein abundance by Western blotting in MDA-MB-231 cells; format: cell-based, human; conditions: 20 μM
Experimental: Measuring Protein Abundance by Western Blotting. MDA-MB-231 cells were seeded in 6-well plates at ˜50% confluency and treated with vehicle (DMSO) or compound as described above but without EU treatment. After 16 h, the compound-containing growth medium was removed and replaced with fresh medium containing compound (re-dosing). After an additional 32 h incubation, total protein was harvested (48 h total treatment time). The cells were then washed twice with cold 1×DPBS, and total protein was harvested by using Mammalian Protein Extraction Reagent (M-PER, Thermo Scientific) per the manufacturer's protocol. Protein concentration was quantified by using BCA Protein Assay Kit (Pierce), and the proteins were separated by using 10% SDS-polyacrylamide gel (20 μg protein per lane). After gel electrophoresis in 1× Running Buffer (50 mM MOPS, 50 mM Tris-base, pH 7.5, 1 mM EDTA, and 0.1% (w/v) SDS) at 120 V for 1 h, the proteins were transferred to a PVDF membrane (0.45 μm, Cytiva) at 300 mA for 1 h in 1× Transfer Buffer (25 mM Bicine, 25 mM Tris-base, pH 7.5, 1:4 MeOH:H2O). The membrane was blocked with 5% (w/v) non-fat dry milk in TBST (1×TBS containing 0.1% (v/v) Tween-20) for 1 h at room temperature. The primary antibody for QSOX1 protein (Cat #10092-932, Proteintech) or SQSTM1 protein (Cat #ab 109012, Abcam) was incubated with 1:1000 dilutions at 4° C. for 16 h. The membrane was then washed by TBST four times (5 min each) and then incubated with the secondary antibody (Cat #7074S, Cell Signaling) with 1:5000 dilution at room temperature for 2 h. The membrane was washed with TBST four times (5 min each) and imaged by using a SuperSignal West Pico Chemiluminescent Substrate (Pierce) per manufacturer's protocol. The blot was stripped by washing the membrane in 1× Stripping Buffer (200 mM glycine, pH 2.2, 4 mM SDS, 1% (v/v) Tween 20) at room temperature for 30 min, followed by blocking again as described above. […] Expression levels of proteins were quantified based on band intensity by using ImageJ. […]

MDA-MB-231 cells = assay: Invasion assay; format: cell-based, human; conditions: 48 h
Experimental: Invasion Assay. MDA-MB-231 cells were seeded in […] and treated with compound or transfected by ASO for 48 h as described in Cell Culture. After treatment for 48 h, the medium was replaced with fresh medium that contains same concentration of compound but lacking FBS for 8 h (serum starvation). ThinCert (GBO) 24-well inserts with 8 μm pores were coated with 100 μL of 0.5 mg/mL Matrigel (Fisher Scientific: CB40234) per well, and then cells were added into the insert (50,000 cells per well). Fresh growth medium with FBS was added to a 24-well plate (600 μL each well), and the inserts containing cells were placed on the top, allowing medium to cover the bottom of the insert. After 16 h, all medium was removed, and cells were washed by 1×DPBS twice. Cells were then fixed with 3% (w/v) paraformaldehyde (PFA) in 1×DPBS at room temperature for 30 min, followed by staining with Crystal Violet (10 mg/mL; 4:1H2O:MeOH) at room temperature for 20 min. A cotton swab was used to gently remove non-invasive cells on sitting on top of the Matrigel. The inserts were then imaged under a regular optical microscope (3 views per well), and the number of invasive cells were counted manually.

RNase L = molecular target: T1, RNase L (Homo sapiens, UniProt Q05823); conditions: versus the RNase L recruiting module of F1-RIBOTAC; cited from earlier work
T1 sequence (Q05823 1-741): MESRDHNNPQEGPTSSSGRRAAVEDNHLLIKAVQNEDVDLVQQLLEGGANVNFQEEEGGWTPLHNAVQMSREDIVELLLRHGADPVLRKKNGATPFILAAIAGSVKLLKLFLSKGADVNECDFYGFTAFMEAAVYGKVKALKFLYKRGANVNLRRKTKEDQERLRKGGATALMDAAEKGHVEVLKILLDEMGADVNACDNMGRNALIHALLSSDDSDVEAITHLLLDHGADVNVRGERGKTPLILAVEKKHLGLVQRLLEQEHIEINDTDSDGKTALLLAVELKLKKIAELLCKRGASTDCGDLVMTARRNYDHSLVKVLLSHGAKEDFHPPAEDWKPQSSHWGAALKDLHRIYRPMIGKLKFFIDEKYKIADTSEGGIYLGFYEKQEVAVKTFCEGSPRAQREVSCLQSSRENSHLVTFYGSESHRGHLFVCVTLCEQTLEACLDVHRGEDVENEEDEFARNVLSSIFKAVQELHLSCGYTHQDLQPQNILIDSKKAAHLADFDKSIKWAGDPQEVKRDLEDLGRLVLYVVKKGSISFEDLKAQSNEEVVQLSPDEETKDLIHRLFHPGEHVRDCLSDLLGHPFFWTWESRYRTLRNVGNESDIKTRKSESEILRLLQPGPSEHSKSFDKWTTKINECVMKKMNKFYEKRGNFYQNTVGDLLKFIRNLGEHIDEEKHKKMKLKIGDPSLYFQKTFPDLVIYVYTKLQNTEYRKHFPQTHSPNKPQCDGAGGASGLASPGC

For `CCOC(=O)C1=C(Nc2ccccc2)S/C(=C\c2ccc(O)c(OCCOCCOCCOCCNC(=O)CCC(=O)N(C)[C@H]3CC[C@@H](c4ccc(Cl)c(Cl)c4)c4ccccc43)c2)C1=O` [Compound F1-CTRL], the Kd [1] was 10 ± 3 µM, the “reduction of QSOX1-a protein” value (QSOX1-a protein) was ~15% and the effect on invasion (MDA-MB-231 cells) was “no significant effect”. The “reduction of RNase L recruiting activity” value (RNase L) was > 20 fold.
